According to patent US20230151049A1, “Compounds Useful in HIV Therapy” (priority 2020, published 2023):
“And” between values parts separate entries of the source, which are not always exact repeats. Identical values can stand only once. Like-named read-outs stand apart in the source and are kept apart here.

Assay: EFdA Rat PK Studies (subcutaneous and intramuscular groups), plasma concentration by LC-MS/MS
Type: in vivo, Wistar Han rats
Settings: for Assayed Concentrations of EFdA, individual rats / Assayed Concentrations of EFdA, Mean / concentration at 0.5 h / concentration at 1 h / concentration at 4 h / concentration at 7 h / concentration at 24 h / concentration at 48 h / concentration at 72 h / concentration at 6 day / concentration at 25 day: plasma; for concentration at 0.5 h / concentration at 1 h / concentration at 4 h / concentration at 7 h / concentration at 24 h / concentration at 48 h / concentration at 72 h / concentration at 6 day / concentration at 25 day: male, Wistar Han, rat
Text: Protocol for EFdA Rat PK Studies Conducted at Charles River Laboratories, NY.
A total of seven naïve male Wistar Han rats, 200-250 g, were received from Charles River Laboratories, Kingston, N.Y. All animals were received from the supplier equipped with a surgically-implanted jugular vein catheter (JVC) for blood sample collection. Following an acclimation period, the animals were assigned to the study based on acceptable health as determined by a staff veterinarian and catheter patency. Animals were placed into two groups of 3 rats per group. Fasting of the animals before or after dosing was not required.
On Day 1 each animal in Group 1 received a single subcutaneous injection of prepared test article at a target dose level of 20 mg/kg and at a dose volume of 0.33 mL/kg. Each animal in Group 2 received a single intramuscular injection of prepared test article into a thigh muscle at a target dose level of 20 mg/kg and at a dose volume of 0.33 mL/kg. The injection sites were shaved prior to dosing and identified with an indelible marker for daily monitoring during the study. The animals were manually restrained for dosing and were not sedated. The dose suspension was mixed well by inversion before each dose to ensure homogeneity. All dosing was performed as detailed in the study protocol and was completed without incident. […] In addition, all animals are monitored twice daily by the veterinary staff for clinical abnormalities.
Blood samples were collected from the study animals as detailed in the sample collection Table 2 below.
Each blood sample for PK (250 μL) was collected from the jugular vein catheter or by venipuncture of a jugular vein. The blood was transferred to a tube containing NaF/Na2EDTA anticoagulant and inverted several times to mix. The blood samples were maintained on crushed ice before centrifugation at 2200×g for 10 minutes at 5° C. to isolate plasma. The resulting plasma samples were transferred to individual polypropylene tubes in a 96-well plate format and immediately placed on dry ice until storage at nominally −80° C. prior to analysis.
The PK plasma samples were analyzed by the Testing Facility to determine the concentration of EFdA using an LC-MS/MS Research Grade Assay (RGA-1) with sensitivity to 0.1 ng/mL. Following review of sample analysis data through Day 29, further sample analysis was discontinued and the study was terminated. The individual and mean plasma concentration-time data are presented in Tables 3 and 4 and mean concentration-time profiles are shown in FIGS. 1 and 2.

Assayed Concentrations of EFdA, individual rats (0.5 hr, IM 20 mg/kg): 1150 ng/mL and 684 ng/mL | Assayed Concentrations of EFdA, individual rats (0.5 hr, SC 20 mg/kg, 20 mg/kg): 1000 ng/mL and 640 ng/mL and 2210 ng/mL | Assayed Concentrations of EFdA, individual rats (1 hr, IM 20 mg/kg): 1640 ng/mL and 1400 ng/mL | Assayed Concentrations of EFdA, individual rats (1 hr, SC 20 mg/kg, 20 mg/kg): 1160 ng/mL and 1040 ng/mL and 3030 ng/mL | Assayed Concentrations of EFdA, individual rats (4 hr, IM 20 mg/kg): 436 ng/mL and 733 ng/mL | Assayed Concentrations of EFdA, individual rats (4 hr, SC 20 mg/kg, 20 mg/kg): 676 ng/mL and 708 ng/mL | Assayed Concentrations of EFdA, individual rats (7 hr, IM 20 mg/kg): 241 ng/mL and 191 ng/mL and 426 ng/mL | Assayed Concentrations of EFdA, individual rats (7 hr, SC 20 mg/kg, 20 mg/kg): 372 ng/mL and 216 ng/mL | Assayed Concentrations of EFdA, individual rats (24 hr, IM 20 mg/kg): 24.7 ng/mL and 1.96 ng/mL and 32.6 ng/mL | Assayed Concentrations of EFdA, individual rats (24 hr, SC 20 mg/kg, 20 mg/kg): 6.70 ng/mL and 14.7 ng/mL and 2.53 ng/mL | Assayed Concentrations of EFdA, individual rats (48 hr, SC 20 mg/kg, 20 mg/kg): 0.713 ng/mL and 0.543 ng/mL | Assayed Concentrations of EFdA, individual rats (72 hr, IM 20 mg/kg): 0.316 ng/mL and 0.241 ng/mL | Assayed Concentrations of EFdA, individual rats (72 hr, SC 20 mg/kg, 20 mg/kg): 0.270 ng/mL and 0.201 ng/mL | concentration at 0.5 h (intramuscular, 20 mg/kg, 0.5 hr, IM 20 mg/kg, read-out: Assayed Concentrations of EFdA, Mean): 921 ng/mL | concentration at 0.5 h (intramuscular, 20 mg/kg, 0.5 hr, IM 20 mg/kg, read-out: Assayed Concentrations of EFdA, individual rats): 929 ng/mL | concentration at 1 h (intramuscular, 20 mg/kg, 1 hr, IM 20 mg/kg, read-out: Assayed Concentrations of EFdA, Mean): 1330 ng/mL | concentration at 1 h (intramuscular, 20 mg/kg, 1 hr, IM 20 mg/kg, read-out: Assayed Concentrations of EFdA, individual rats): 957 ng/mL | concentration at 4 h (intramuscular, 20 mg/kg, 4 hr, IM 20 mg/kg, read-out: Assayed Concentrations of EFdA, Mean): 610 ng/mL | concentration at 4 h (intramuscular, 20 mg/kg, 4 hr, IM 20 mg/kg, read-out: Assayed Concentrations of EFdA, individual rats): 662 ng/mL | concentration at 7 h (intramuscular, 20 mg/kg, 7 hr, IM 20 mg/kg, read-out: Assayed Concentrations of EFdA, Mean): 286 ng/mL | concentration at 24 h (intramuscular, 20 mg/kg, 24 hr, IM 20 mg/kg, read-out: Assayed Concentrations of EFdA, Mean): 19.8 ng/mL | concentration at 48 h (intramuscular, 20 mg/kg, 48 hr, IM 20 mg/kg, read-out: Assayed Concentrations of EFdA, Mean): 2.18 ng/mL | concentration at 72 h (intramuscular, 20 mg/kg, 72 hr, IM 20 mg/kg, read-out: Assayed Concentrations of EFdA, Mean): 0.29 ng/mL | concentration at 72 h (intramuscular, 20 mg/kg, 72 hr, IM 20 mg/kg, read-out: Assayed Concentrations of EFdA, individual rats): 0.301 ng/mL | concentration at 6 day (intramuscular, 20 mg/kg, Day 6, IM 20 mg/kg, read-out: Assayed Concentrations of EFdA, Mean): 0.1 ng/mL | concentration at 6 day (intramuscular, 20 mg/kg, Day 6, IM 20 mg/kg, read-out: Assayed Concentrations of EFdA, individual rats): 0.102 ng/mL | concentration at 0.5 h (sc, 20 mg/kg, 0.5 hr, SC 20 mg/kg, read-out: Assayed Concentrations of EFdA, Mean): 1280 ng/mL | concentration at 1 h (sc, 20 mg/kg, 1 hr, SC 20 mg/kg, read-out: Assayed Concentrations of EFdA, Mean): 1430 ng/mL | concentration at 4 h (sc, 20 mg/kg, 4 hr, SC 20 mg/kg, read-out: Assayed Concentrations of EFdA, Mean): 639 ng/mL | concentration at 4 h (sc, 20 mg/kg, 4 hr, SC 20 mg/kg, read-out: Assayed Concentrations of EFdA, individual rats): 534 ng/mL | concentration at 7 h (sc, 20 mg/kg, 7 hr, SC 20 mg/kg, read-out: Assayed Concentrations of EFdA, Mean): 303 ng/mL | concentration at 7 h (sc, 20 mg/kg, 7 hr, SC 20 mg/kg, read-out: Assayed Concentrations of EFdA, individual rats): 320 ng/mL | concentration at 24 h (sc, 20 mg/kg, 24 hr, SC 20 mg/kg, read-out: Assayed Concentrations of EFdA, Mean): 7.98 ng/mL | concentration at 48 h (sc, 20 mg/kg, 48 hr, SC 20 mg/kg, read-out: Assayed Concentrations of EFdA, Mean): 0.68 ng/mL | concentration at 48 h (sc, 20 mg/kg, 48 hr, SC 20 mg/kg, read-out: Assayed Concentrations of EFdA, individual rats): 0.771 ng/mL | concentration at 72 h (sc, 20 mg/kg, 72 hr, SC 20 mg/kg, read-out: Assayed Concentrations of EFdA, Mean): 0.241 ng/mL | concentration at 72 h (sc, 20 mg/kg, 72 hr, SC 20 mg/kg, read-out: Assayed Concentrations of EFdA, individual rats): 0.251 ng/mL | concentration at 6 day (sc, 20 mg/kg, Day 6, SC 20 mg/kg, read-out: Assayed Concentrations of EFdA, Mean): 0.04 ng/mL | concentration at 6 day (sc, 20 mg/kg, Day 6, SC 20 mg/kg, read-out: Assayed Concentrations of EFdA, individual rats): 0.117 ng/mL | concentration at 25 day (sc, 20 mg/kg, Day 25, SC 20 mg/kg, read-out: Assayed Concentrations of EFdA, Mean): 0.221 ng/mL | concentration at 25 day (sc, 20 mg/kg, Day 25, SC 20 mg/kg, read-out: Assayed Concentrations of EFdA, individual rats): 0.221 ng/mL | detectable duration of exposure of EFdA (rat IM and SC administration of 20 mg/kg): less than 8 days
SMILES: C#C[C@]1(CO)O[C@@H](n2cnc3c(N)nc(F)nc32)C[C@@H]1O [EFdA, (2R,3S,5R)-5-(6-amino-2-fluoro-9H-purin-9-yl)-2-ethynyl-2-(hydroxymethyl)tetrahydrofuran-3-ol]
Assayed Concentrations of EFdA, individual rats (48 hr, IM 20 mg/kg): 5.25 ng/mL and 0.369 ng/mL and 0.915 ng/mL | Assayed Concentrations of EFdA, individual rats (Day 6, IM 20 mg/kg): BQL (BQL—Below Quantitation Limit, <0.100 ng/mL) and 0.103 ng/mL | Assayed Concentrations of EFdA, individual rats (Day 6, SC 20 mg/kg, 20 mg/kg): BQL (BQL—Below Quantitation Limit, <0.100 ng/mL) | Assayed Concentrations of EFdA, Mean (Day 8, IM 20 mg/kg): BQL (BQL—Below Quantitation Limit, <0.100 ng/mL) | Assayed Concentrations of EFdA, individual rats (Day 8, IM 20 mg/kg): BQL (BQL—Below Quantitation Limit, <0.100 ng/mL) | Assayed Concentrations of EFdA, Mean (Day 8, SC 20 mg/kg): BQL (BQL—Below Quantitation Limit, <0.100 ng/mL) | Assayed Concentrations of EFdA, individual rats (Day 8, SC 20 mg/kg): BQL (BQL—Below Quantitation Limit, <0.100 ng/mL) | Assayed Concentrations of EFdA, Mean (Day 11, IM 20 mg/kg): BQL (BQL—Below Quantitation Limit, <0.100 ng/mL) | Assayed Concentrations of EFdA, individual rats (Day 11, IM 20 mg/kg): BQL (BQL—Below Quantitation Limit, <0.100 ng/mL) | Assayed Concentrations of EFdA, Mean (Day 11, SC 20 mg/kg): BQL (BQL—Below Quantitation Limit, <0.100 ng/mL) | Assayed Concentrations of EFdA, individual rats (Day 11, SC 20 mg/kg): BQL (BQL—Below Quantitation Limit, <0.100 ng/mL) | Assayed Concentrations of EFdA, Mean (Day 15, IM 20 mg/kg): BQL (BQL—Below Quantitation Limit, <0.100 ng/mL) | Assayed Concentrations of EFdA, individual rats (Day 15, IM 20 mg/kg): BQL (BQL—Below Quantitation Limit, <0.100 ng/mL) | Assayed Concentrations of EFdA, Mean (Day 15, SC 20 mg/kg): BQL (BQL—Below Quantitation Limit, <0.100 ng/mL) | Assayed Concentrations of EFdA, individual rats (Day 15, SC 20 mg/kg): BQL (BQL—Below Quantitation Limit, <0.100 ng/mL) | Assayed Concentrations of EFdA, Mean (Day 22, IM 20 mg/kg): BQL (BQL—Below Quantitation Limit, <0.100 ng/mL) | Assayed Concentrations of EFdA, individual rats (Day 22, IM 20 mg/kg): BQL (BQL—Below Quantitation Limit, <0.100 ng/mL) | Assayed Concentrations of EFdA, Mean (Day 22, SC 20 mg/kg): BQL (BQL—Below Quantitation Limit, <0.100 ng/mL) | Assayed Concentrations of EFdA, individual rats (Day 22, SC 20 mg/kg): BQL (BQL—Below Quantitation Limit, <0.100 ng/mL) | Assayed Concentrations of EFdA, Mean (Day 25, IM 20 mg/kg): BQL (BQL—Below Quantitation Limit, <0.100 ng/mL) | Assayed Concentrations of EFdA, individual rats (Day 25, IM 20 mg/kg): BQL (BQL—Below Quantitation Limit, <0.100 ng/mL) | Assayed Concentrations of EFdA, individual rats (Day 25, SC 20 mg/kg, 20 mg/kg): BQL (BQL—Below Quantitation Limit, <0.100 ng/mL) | Assayed Concentrations of EFdA, Mean (Day 29, IM 20 mg/kg): BQL (BQL—Below Quantitation Limit, <0.100 ng/mL) | Assayed Concentrations of EFdA, individual rats (Day 29, IM 20 mg/kg): BQL (BQL—Below Quantitation Limit, <0.100 ng/mL) | Assayed Concentrations of EFdA, Mean (Day 29, SC 20 mg/kg): BQL (BQL—Below Quantitation Limit, <0.100 ng/mL) | Assayed Concentrations of EFdA, individual rats (Day 29, SC 20 mg/kg): BQL (BQL—Below Quantitation Limit, <0.100 ng/mL)
